From patent US9617289B2, “RSV antiviral compounds” (JANSSEN R&D IRELAND, priority 2012, dated 2017) come the findings set out here.

One data set concerns rgRSV224 virus. In words: Antiviral activity: inhibition of rgRSV224 (GFP-expressing RSV) replication in HeLa cells. The note with it: for EC50: human respiratory syncytial virus, HeLa, 72 h. It counts as cell-based, respiratory syncytial virus. The method in brief:
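HeLa cells infected with GFP-expressing rgRSV224 at MOI 0.02 alongside 4-fold compound dilutions in duplicate (0.5% DMSO). Incubated 3 days at 37 °C; EC50 taken as 50% inhibition of GFP expression by laser microscopy. CC50 measured in parallel uninfected cells by ATP content after 3 days; SI = CC50/EC50.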

Setting [1] is: read-out: pEC50, rgRSV224 (MOI=0.02) in HeLa cells, GFP expression three days post-virus exposure (converted).
The mark [2] stands for this setting: read-out: RSV-wt_pEC50, rgRSV224 (MOI=0.02) in HeLa cells, GFP expression three days post-virus exposure.

Where two headings read alike, the source gives them in different places. A value given as a limit tells only on which side of the number the result lay.

Compound `CC(C)(O)C(=O)N1CC2(C1)C(=O)N(Cc1cc3cc(Cl)ccc3n1CCCC#N)c1ccccc12` [Compound 73, 4-(5-chloro-2-((1-(2-hydroxy-2-methylpropanoyl)-2′-oxospiro[azetidine-3,3′-indolin]-1′-yl)methyl)-1H-indol-1-yl)butanenitrile] yielded a melting point of 89.86 °C. Moreover, in the data set with rgRSV224 virus (setting [1]), the EC50 is 0.501 nM.

For `O=C1N(Cc2nc3nc(Cl)ccc3n2CCCC(F)(F)F)c2cnccc2C12CCOCC2` [Compound 75, 1′-((5-chloro-1-(4,4,4-trifluorobutyl)-1H-imidazo[4,5-b]-pyridin-2-yl)methyl)-2,3,5,6-tetrahydrospiro[pyran-4,3′-pyrrolo[2,3-c]pyridin]-2′(1′H)-one], the melting point was determined as 188.67 °C. The compound further came in with a pEC50 with rgRSV224 virus (rgRSV224 (MOI=0.02) in HeLa cells, GFP expression three days post-virus exposure) of 8.3.

`N#CCCCn1c(CN2C(=O)C3(CCN(C(=O)OC4COC4)CC3)c3ccncc32)cc2cc(Cl)ccc21` [Compound 80, oxetan-3-yl 1′-((5-chloro-1-(3-cyanopropyl)-1H-indol-2-yl)-methyl)-2′-oxo-1′,2′-dihydro[spiropiperidine-4,3′-pyrrolo-[2,3-c]pyridine]-1-carboxylate] returned a melting point of 208.24 °C. In addition, the EC50 with rgRSV224 virus (setting [1]) was below 0.158 nM.

`N#CCCCn1c(CN2C(=O)C3(CCN(S(=O)(=O)C4CC4)CC3)c3ccncc32)cc2cc(Cl)ccc21` [Compound 81, 4-(5-chloro-2-((1-(cyclopropylsulfonyl)-2′-oxospiro-[piperidine-4,3′-pyrrolo[2,3-c]pyridin]-1′(2′H)-yl)methyl)-1H-indol-1-yl)butanenitrile] yielded a melting point of 93.04 °C. Moreover, in the data set on rgRSV224 virus (setting [1]), the EC50 was below 0.158 nM.

Consider `N#CCCCn1c(CN2C(=O)C3(CCN(C(=O)OC4COC4)CC3)c3ccncc32)nc2cc(Cl)ccc21` [Compound 82, oxetan-3-yl 1′-((5-chloro-1-(3-cyanopropyl)-1H-benzo[d]-imidazol-2-yl)methyl)-2′-oxo-1′,2′-dihydrospiro[piperidine-4,3′-pyrrolo[2,3-c]pyridine]-1-carboxylate], for which the melting point was 203.41 °C. Also, the EC50 in the data set on rgRSV224 virus (setting [1]) is below 0.158 nM.

In the case of `CC(=O)N1CCC2(CC1)C(=O)N(Cc1nc3cc(Cl)ccc3n1CCCC#N)c1cnccc12` [Compound 83, 4-(2-((1-acetyl-2′-oxospiro[piperidine-4,3′-pyrrolo[2,3-c]-pyridin]-1′(2′H)-yl)methyl)-5-chloro-1H-benzo[d]imidazol-1-yl)butanenitrile], the melting point was 223.53 °C. Further, the EC50 in the data set on rgRSV224 virus (setting [1]) is below 0.158 nM.

With `CS(=O)(=O)CCCn1c(CN2C(=O)C3(CCN(S(=O)(=O)C4CC4)CC3)c3ccncc32)nc2cc(Cl)ccc21` [Compound 85, 1′-((5-chloro-1-(3-(methylsulfonyl)propyl)-1H-benzo[d]-imidazol-2-yl)methyl)-1-(cyclopropylsulfonyl)spiro-[piperidine-4,3′-pyrrolo[2,3-c]pyridin]-2′(1′H)-one], the melting point came out at 150.42 °C. Moreover, in the data set with rgRSV224 virus (setting [1]), the EC50 is below 0.158 nM.

As to `CS(=O)(=O)CCCn1c(CN2C(=O)C3(CCN(C(=O)C4CC4)CC3)c3ccncc32)nc2cc(Cl)ccc21` [Compound 90, 1′-({5-Chloro-1-[3-(methylsulfonyl)propyl]-1H-benzimidazol-2-yl}methyl)-1-(cyclopropylcarbonyl)spiro[piperidine-4,3′-pyrrolo[2,3-c]pyridin]-2′(1′H)-one], the melting point amounted to 208.64 °C. Also, the EC50 with rgRSV224 virus (setting [2]) is 0.0468 nM.

The compound `CS(=O)(=O)N1CC2(C1)C(=O)N(Cc1nc3cc(Cl)ccc3n1CCCC#N)c1ccccc12` [Compound 94, 4-(5-Chloro-2-{[1-(methylsulfonyl)-2′-oxospiro[azetidine-3,3′-indol]-1′(2′H)-yl]methyl}-1H-benzimidazol-1-yl)-butanenitrile] gave a melting point of 214.11 °C. Also, the EC50 with rgRSV224 virus (setting [2]) is 0.129 nM.

`CS(=O)(=O)CCCn1c(CN2C(=O)C3(CCN(S(=O)(=O)c4cccs4)CC3)c3ccccc32)nc2cc(Cl)ccc21` [Compound 102] gave a melting point of 233.06 °C. Further, the EC50 in the data set with rgRSV224 virus (setting [2]) was 1.45 nM.
